Biological target: T1, rACE2 (Homo sapiens, UniProt Q9BYF1)
T1 construct: purchased R&D systems, Zug
Assay: ACE2 enzymatic activity assay with fluorogenic substrate
Format: biochemical
Settings: range of 0.045 nM to 11100 nM; positive control; read-out: half maximal inhibitory concentration (IC50) of ACE2 catalytic activity
Experimental: The ACE2 enzymatic activity assay was designed to measure the exopeptidase activity of ACE2 and to screen for inhibition. Activity was measured using a commercially available synthetic fluorogenic substrate for ACE2 and rACE2 (R&D systems, Zug). rACE2 was used to generate a standard curve using the assay buffer, 75 mM TRIS, 1M NaCl, ph7.5. Natural extract screening was performed using 100 ng/ml rACE2 and 15 μM ACE2 fluorogenic substrate plus the Chlorella extracts in various concentrations. Subsequently the mixture was incubated for 1 h at 37° C. and measured using Flexstation 3 (Molecular Devices, San Jose, CA, USA) at excitation 320 nm and emission 405 nm.

T1 sequence (Q9BYF1 18-805): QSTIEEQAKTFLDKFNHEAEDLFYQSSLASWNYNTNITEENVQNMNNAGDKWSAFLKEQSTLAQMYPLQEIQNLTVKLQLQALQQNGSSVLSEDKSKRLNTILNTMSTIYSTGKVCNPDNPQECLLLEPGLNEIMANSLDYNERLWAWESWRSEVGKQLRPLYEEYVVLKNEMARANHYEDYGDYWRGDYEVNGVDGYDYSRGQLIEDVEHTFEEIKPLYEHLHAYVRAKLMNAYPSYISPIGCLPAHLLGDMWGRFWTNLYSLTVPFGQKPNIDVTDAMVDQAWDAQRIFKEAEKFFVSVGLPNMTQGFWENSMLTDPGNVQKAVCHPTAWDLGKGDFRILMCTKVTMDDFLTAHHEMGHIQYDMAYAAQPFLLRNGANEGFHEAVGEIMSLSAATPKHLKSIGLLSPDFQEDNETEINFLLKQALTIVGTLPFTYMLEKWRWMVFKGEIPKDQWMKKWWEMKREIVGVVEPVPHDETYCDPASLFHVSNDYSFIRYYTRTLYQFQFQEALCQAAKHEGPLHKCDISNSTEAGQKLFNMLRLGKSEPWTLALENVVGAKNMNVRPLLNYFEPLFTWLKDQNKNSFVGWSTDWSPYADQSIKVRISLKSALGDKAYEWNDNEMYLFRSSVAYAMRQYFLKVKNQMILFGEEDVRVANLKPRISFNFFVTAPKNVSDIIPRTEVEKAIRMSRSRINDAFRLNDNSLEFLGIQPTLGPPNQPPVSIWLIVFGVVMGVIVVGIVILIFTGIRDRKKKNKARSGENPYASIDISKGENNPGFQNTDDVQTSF

Question: Which IC50 does the source give for `CC(C)C[C@H](N[C@@H](Cc1cncn1Cc1cc(Cl)cc(Cl)c1)C(=O)O)C(=O)O` [MLN-4760] here?
Answer: Its IC50 is 0.19 nM.

Source: US20240189375A1, “COMPOSITION COMPRISING A […] AN EXTRACT THEREOF FOR USE IN THE TREATMENT OF A VIRAL DISEASE” (priority 2021, published 2024)
